Laboratory results published in ChEMBL document CHEMBL5465560, “Selectivity Literature for EUbOPEN Chemogenomic Library” (2024).
One block for each molecule: values may come before it.

Tests used:
[1] = target: Vascular endothelial growth factor receptor 3 (Homo sapiens, UniProt P35916); settings: at 10 µM
[2] = target: Mitogen-activated protein kinase 3 (Homo sapiens, UniProt P27361); settings: at 10 µM
[3] = target: Serine/threonine-protein kinase PLK2 (Homo sapiens, UniProt Q9NYY3); settings: at 10 µM
[4] = target: G protein-coupled receptor kinase 4 (Homo sapiens) (UniProt P32298); assay: Selectivity interaction (KinomeScan (DiscoverX)) EUB0001049a GRK4; settings: at 1 µM
[5] = target: Serine/threonine-protein kinase 16 (Homo sapiens, UniProt O75716); assay: Selectivity interaction (KinomeScan (DiscoverX)) EUB0001049a STK16; settings: at 1 µM
[6] = target: Serine/threonine-protein kinase 25 (Homo sapiens) (UniProt O00506); assay: Selectivity interaction (KinomeScan (DiscoverX)) EUB0001049a STK25; settings: at 1 µM
[7] = target: Tyrosine-protein kinase Lyn (Homo sapiens, UniProt P07948); assay: Selectivity interaction (ActivX KiNativ screen (kinase selectivity in THP-1 cell lysates)) EUB0000639a LYN; assay type: subcellular; settings: lysate, at 0.01 µM
[8] = target: Cyclin-dependent kinase 16 (Homo sapiens) (UniProt Q00536); assay: Selectivity interaction (KinomeScan (DiscoverX)) EUB0000695a CDK16; settings: at 100 nM
[9] = target: Serine/threonine-protein kinase PAK 1 (Homo sapiens) (UniProt Q13153); settings: at 10 µM
[10] = target: T1, Ephrin type-B receptor 1 (Homo sapiens) (UniProt P54762); assay: Selectivity interaction (KinomeScan (DiscoverX)) EUB0000595a EPHB1; settings: at 10 µM
T1 sequence (whole entry): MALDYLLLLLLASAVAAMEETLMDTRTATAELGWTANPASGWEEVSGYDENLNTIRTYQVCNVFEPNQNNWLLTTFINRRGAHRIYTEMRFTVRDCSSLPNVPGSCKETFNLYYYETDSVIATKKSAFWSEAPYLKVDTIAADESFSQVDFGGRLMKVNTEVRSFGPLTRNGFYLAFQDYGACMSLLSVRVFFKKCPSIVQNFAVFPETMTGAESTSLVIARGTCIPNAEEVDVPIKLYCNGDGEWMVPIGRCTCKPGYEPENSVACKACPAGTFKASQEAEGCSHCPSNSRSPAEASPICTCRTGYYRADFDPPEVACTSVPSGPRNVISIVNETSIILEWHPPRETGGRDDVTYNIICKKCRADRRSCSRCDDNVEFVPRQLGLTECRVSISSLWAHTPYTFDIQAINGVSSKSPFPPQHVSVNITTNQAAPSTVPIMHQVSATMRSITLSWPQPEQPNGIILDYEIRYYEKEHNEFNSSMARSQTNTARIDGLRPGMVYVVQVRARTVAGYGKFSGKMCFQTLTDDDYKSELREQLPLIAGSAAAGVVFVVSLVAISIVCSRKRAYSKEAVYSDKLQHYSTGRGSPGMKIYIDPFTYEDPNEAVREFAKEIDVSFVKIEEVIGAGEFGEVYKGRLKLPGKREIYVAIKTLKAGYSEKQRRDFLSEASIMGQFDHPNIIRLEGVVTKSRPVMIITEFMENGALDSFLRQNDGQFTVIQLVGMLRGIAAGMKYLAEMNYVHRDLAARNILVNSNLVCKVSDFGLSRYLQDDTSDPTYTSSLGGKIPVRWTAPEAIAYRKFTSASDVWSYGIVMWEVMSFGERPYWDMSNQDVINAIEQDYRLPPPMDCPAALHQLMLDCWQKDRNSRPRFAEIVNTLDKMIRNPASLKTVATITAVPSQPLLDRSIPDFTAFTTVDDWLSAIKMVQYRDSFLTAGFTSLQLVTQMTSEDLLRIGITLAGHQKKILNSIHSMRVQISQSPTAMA

[11] = target: T2, Dual specificity mitogen-activated protein kinase kinase 5 (Homo sapiens) (UniProt Q13163); assay: Selectivity interaction (KinomeScan (DiscoverX)) EUB0000229b MAP2K5; settings: at 10 µM
T2 sequence (whole entry): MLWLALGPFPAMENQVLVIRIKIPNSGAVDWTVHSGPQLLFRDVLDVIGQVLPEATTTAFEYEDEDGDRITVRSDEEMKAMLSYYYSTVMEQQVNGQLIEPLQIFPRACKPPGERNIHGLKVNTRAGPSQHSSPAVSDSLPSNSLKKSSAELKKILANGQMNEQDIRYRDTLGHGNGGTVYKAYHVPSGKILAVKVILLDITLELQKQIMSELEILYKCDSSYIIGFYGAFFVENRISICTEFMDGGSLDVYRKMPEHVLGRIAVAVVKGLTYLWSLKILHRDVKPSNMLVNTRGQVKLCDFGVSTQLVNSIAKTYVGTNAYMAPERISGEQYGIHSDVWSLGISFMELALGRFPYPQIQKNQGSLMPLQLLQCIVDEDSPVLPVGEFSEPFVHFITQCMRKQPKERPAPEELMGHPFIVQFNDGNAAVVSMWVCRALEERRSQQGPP

[12] = target: Serine/threonine-protein kinase 24 (Homo sapiens) (UniProt Q9Y6E0); assay: Selectivity interaction (ProQinase) EUB0000171b STK24
[13] = target: Serine/threonine-protein kinase WNK3 (Homo sapiens) (UniProt Q9BYP7); assay: Selectivity interaction (ProQinase) EUB0000171b WNK3
[14] = target: Tyrosine-protein kinase FRK (Homo sapiens) (UniProt P42685); assay: Selectivity interaction (KinomeScan (DiscoverX)) EUB0000092b FRK; settings: at 10 µM
[15] = target: Ribosomal protein S6 kinase alpha-6 (Homo sapiens, UniProt Q9UK32); assay: Selectivity interaction (KinomeScan (DiscoverX)) EUB0000092b RPS6KA6; settings: at 10 µM
[16] = target: Mitogen-activated protein kinase 9 (Homo sapiens, UniProt P45984); assay: Selectivity interaction (KinomeScan (DiscoverX)) EUB0000045b MAPK9
[17] = target: Serine/threonine-protein kinase B-raf (Homo sapiens) (UniProt P15056); assay: (§1) Selectivity interaction (KinomeScan (DiscoverX)) EUB0001619a BRAF; settings: at 1 µM
[18] = system: Serine/threonine-protein kinase B-raf (Homo sapiens), P15056 [V600E]; assay: as §1; settings: at 1 µM
[19] = target: Cyclin-dependent kinase 2 (Homo sapiens, UniProt P24941); assay: Selectivity interaction (KinomeScan (DiscoverX)) EUB0000607a CDK2; settings: at 10 µM
[20] = target: Tyrosine-protein kinase Srms (Homo sapiens) (UniProt Q9H3Y6); assay: Selectivity interaction (SelectScreen profiling (Invitrogen)) EUB0000607a SRMS; settings: at 2 µM
[21] = target: Mitogen-activated protein kinase kinase kinase 9 (Homo sapiens) (UniProt P80192); assay: Selectivity interaction (Kinase panel (KiNativ target engagement assay in Jurkat cells)) EUB0001635a MAP3K9; assay type: cell-based; settings: Selectivity number of off-targets 0.0, Selectivity number of targets 233.0, Source Knowledge https://www.sciencedirect.com/science/article/pii/S2451945619300674?via%3Dihub, at 1 µM

Sequence of Serine/threonine-protein kinase WNK3 (Homo sapiens) (Q9BYP7 whole entry): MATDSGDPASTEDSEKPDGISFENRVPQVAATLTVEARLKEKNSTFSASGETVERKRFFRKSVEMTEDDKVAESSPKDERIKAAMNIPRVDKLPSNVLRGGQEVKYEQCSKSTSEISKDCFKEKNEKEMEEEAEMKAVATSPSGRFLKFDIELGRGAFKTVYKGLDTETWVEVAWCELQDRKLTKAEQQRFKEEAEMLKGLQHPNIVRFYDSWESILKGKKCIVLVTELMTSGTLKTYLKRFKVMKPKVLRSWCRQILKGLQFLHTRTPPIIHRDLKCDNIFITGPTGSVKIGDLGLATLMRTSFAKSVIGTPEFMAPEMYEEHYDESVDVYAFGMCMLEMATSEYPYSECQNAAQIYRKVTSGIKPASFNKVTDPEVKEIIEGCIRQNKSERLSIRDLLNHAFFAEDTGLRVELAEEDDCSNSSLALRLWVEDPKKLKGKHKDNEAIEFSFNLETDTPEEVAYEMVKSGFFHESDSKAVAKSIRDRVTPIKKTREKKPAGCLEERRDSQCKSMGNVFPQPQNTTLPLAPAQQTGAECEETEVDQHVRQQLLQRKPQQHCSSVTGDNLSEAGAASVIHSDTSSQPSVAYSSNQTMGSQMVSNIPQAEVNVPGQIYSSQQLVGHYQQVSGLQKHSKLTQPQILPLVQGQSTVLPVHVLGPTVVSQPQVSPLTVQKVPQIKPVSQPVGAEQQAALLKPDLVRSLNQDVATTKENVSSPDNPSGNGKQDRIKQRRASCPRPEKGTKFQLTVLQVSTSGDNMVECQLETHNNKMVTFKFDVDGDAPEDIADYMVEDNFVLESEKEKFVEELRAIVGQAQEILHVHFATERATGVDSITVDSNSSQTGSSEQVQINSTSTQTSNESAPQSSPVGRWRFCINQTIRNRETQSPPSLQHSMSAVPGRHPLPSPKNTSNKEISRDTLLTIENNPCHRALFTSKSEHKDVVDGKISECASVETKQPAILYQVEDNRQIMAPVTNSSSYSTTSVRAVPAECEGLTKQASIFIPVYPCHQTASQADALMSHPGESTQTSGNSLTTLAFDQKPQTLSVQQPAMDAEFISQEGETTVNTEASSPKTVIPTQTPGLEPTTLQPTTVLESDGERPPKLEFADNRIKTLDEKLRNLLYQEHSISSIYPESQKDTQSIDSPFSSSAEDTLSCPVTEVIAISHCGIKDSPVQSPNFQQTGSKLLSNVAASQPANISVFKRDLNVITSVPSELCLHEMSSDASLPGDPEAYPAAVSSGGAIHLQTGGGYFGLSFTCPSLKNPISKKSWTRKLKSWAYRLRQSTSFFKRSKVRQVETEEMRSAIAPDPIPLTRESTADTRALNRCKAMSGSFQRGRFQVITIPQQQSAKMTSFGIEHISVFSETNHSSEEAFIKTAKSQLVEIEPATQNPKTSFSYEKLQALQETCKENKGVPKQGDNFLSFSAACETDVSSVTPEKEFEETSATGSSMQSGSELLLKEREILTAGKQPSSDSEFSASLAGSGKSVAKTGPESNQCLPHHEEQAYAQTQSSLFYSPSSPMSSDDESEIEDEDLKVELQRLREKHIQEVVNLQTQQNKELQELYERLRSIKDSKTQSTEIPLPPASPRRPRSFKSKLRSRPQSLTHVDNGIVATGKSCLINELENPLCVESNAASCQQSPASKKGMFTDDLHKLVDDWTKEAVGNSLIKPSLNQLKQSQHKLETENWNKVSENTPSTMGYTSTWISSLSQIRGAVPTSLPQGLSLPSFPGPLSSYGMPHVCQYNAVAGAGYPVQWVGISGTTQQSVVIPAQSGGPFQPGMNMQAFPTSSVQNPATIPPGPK
Sequence of Mitogen-activated protein kinase 9 (P45984 whole entry, looked up): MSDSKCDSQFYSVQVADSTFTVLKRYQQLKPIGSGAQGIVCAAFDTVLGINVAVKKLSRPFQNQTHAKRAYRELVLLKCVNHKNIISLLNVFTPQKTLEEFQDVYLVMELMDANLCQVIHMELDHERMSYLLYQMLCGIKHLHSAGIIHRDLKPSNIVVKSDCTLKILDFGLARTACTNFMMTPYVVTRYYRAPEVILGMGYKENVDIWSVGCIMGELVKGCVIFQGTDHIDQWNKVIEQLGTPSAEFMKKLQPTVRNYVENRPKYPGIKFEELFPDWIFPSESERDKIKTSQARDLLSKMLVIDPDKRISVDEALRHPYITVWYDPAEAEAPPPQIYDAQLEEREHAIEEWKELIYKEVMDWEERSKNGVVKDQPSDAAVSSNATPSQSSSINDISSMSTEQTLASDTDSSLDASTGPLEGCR
Sequence of Serine/threonine-protein kinase 24 (Homo sapiens) (Q9Y6E0 whole entry, looked up): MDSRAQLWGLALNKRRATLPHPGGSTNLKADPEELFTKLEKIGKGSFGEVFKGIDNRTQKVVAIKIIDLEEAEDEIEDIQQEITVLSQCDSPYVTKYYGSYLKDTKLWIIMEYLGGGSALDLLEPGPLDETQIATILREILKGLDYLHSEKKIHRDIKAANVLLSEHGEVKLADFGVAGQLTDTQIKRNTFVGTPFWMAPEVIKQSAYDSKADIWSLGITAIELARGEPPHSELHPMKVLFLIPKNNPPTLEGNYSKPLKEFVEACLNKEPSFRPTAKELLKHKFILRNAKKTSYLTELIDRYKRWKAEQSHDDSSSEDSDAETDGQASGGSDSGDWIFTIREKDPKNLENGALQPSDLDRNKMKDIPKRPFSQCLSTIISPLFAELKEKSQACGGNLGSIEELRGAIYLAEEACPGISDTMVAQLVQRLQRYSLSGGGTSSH
Sequence of Serine/threonine-protein kinase 16 (O75716 whole entry): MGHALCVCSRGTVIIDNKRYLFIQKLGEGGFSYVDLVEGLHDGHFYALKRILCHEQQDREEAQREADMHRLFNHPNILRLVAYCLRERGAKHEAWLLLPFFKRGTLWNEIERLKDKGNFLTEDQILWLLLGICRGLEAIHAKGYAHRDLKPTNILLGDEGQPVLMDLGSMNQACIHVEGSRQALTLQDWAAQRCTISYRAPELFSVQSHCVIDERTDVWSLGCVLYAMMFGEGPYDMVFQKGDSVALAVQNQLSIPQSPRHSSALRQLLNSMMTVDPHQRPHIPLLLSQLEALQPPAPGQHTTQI
Sequence of Ribosomal protein S6 kinase alpha-6 (Q9UK32 whole entry): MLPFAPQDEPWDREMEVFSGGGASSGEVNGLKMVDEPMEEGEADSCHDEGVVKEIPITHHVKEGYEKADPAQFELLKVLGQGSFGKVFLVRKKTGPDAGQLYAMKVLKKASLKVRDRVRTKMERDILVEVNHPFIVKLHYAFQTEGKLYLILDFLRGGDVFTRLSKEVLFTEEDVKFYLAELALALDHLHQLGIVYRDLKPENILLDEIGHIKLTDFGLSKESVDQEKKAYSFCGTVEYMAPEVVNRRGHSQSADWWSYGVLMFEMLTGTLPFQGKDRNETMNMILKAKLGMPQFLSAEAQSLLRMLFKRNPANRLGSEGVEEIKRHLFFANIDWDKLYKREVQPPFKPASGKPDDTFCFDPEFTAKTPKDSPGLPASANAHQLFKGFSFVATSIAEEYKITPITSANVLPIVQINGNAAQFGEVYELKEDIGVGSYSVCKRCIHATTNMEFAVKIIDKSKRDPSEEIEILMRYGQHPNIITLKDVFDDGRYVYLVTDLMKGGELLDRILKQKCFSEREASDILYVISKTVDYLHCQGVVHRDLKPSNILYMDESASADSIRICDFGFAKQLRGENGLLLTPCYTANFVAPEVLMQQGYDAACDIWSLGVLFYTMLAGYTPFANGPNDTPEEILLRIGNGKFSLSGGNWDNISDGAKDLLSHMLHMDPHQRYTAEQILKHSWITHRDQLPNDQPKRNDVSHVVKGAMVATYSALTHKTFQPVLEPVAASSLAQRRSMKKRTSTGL
Sequence of Serine/threonine-protein kinase B-raf (Homo sapiens) (P15056 whole entry): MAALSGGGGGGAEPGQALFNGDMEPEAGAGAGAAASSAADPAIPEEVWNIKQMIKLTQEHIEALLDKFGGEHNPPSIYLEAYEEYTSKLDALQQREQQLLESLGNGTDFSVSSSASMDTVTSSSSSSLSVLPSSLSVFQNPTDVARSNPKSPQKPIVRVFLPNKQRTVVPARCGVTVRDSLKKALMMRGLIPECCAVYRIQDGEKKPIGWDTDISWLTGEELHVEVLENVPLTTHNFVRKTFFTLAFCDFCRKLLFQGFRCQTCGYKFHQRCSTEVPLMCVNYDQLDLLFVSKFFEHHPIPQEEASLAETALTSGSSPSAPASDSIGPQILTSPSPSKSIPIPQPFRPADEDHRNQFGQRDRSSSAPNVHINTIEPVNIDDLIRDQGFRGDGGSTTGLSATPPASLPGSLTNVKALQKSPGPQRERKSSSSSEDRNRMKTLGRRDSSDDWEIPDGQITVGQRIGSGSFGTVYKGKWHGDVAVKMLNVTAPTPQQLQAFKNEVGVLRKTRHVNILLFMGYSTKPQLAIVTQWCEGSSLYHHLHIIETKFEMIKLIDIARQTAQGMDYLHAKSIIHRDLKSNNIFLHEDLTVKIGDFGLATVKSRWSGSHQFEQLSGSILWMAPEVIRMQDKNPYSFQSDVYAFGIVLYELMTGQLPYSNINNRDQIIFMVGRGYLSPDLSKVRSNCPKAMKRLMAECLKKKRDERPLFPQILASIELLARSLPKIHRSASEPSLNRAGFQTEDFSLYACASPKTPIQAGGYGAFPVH
Sequence of Serine/threonine-protein kinase 25 (Homo sapiens) (O00506 whole entry, looked up): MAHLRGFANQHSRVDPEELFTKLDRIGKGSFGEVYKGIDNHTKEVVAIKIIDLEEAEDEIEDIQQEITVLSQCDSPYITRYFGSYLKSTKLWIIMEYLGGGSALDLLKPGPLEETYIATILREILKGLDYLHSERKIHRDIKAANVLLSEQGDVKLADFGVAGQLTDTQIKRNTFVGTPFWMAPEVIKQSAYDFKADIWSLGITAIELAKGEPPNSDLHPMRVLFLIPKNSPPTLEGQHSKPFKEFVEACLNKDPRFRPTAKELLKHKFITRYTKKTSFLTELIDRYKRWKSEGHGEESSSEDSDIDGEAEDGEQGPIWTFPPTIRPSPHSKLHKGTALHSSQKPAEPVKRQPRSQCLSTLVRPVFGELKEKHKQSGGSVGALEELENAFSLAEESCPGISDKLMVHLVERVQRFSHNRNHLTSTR
Sequence of Serine/threonine-protein kinase B-raf (Homo sapiens), P15056 [V600E] (P15056 whole entry V600E): as the sequence (P15056 whole entry) above, with V600E counted along it

Structure (SMILES): Cc1cc([C@@H](C)Nc2ccccc2C(=O)O)c2nc(N3CCOCC3)cc(=O)n2c1 [AZD-6482]
- % of control [1]: 95%
- % of control [2]: 95%
- % of control [3]: 99%

Structure (SMILES): COc1cc(Nc2nc(C)cc(-c3cnn4nc(OC)ccc34)n2)cc(C(F)(F)F)c1
- % of control [4]: 85%
- % of control [5]: 81%
- % of control [6]: 91%

- % of inhibition [7]: 5.3%
Structure (SMILES): CC[C@@H]1[C@H](F)C(=O)N[C@@H]1COc1nccc2cc(C(N)=O)c(OC)cc12 [ZIMLOVISERTIB]

Structure (SMILES): Cc1cc(F)c(C(=O)Nc2cccc(-c3nncn3C(C)C)n2)cc1-n1cnc(C2CC2)c1
- % of control [8]: 75%

- % of control [9]: 100%
Structure (SMILES): CCN(CC)CCCCNc1ncc2cc(-c3cc(OC)cc(OC)c3)c(NC(=O)NC(C)(C)C)nc2n1

Structure (SMILES): COCC(=O)NC/C=C/c1ccc2ncnc(Nc3ccc(Oc4ccc(C)nc4)c(C)c3)c2c1 [CP-724714]
- % of control [10]: 100%

Structure (SMILES): COc1cc(N(C)c2ccnc3ccc(C(F)(F)F)cc23)cc(OC)c1OC
- % binding [11]: 86%

- % of control ([12]; at 1 µM): 85%
- % of control ([12]; at 5 µM): 89%
- % of control ([13]; at 1 µM): 79%
- % of control ([13]; at 5 µM): 67%
Structure (SMILES): C=CC(=O)Nc1cccc(C(=O)Nc2ccc(Nc3cc(-c4[nH]c(SC)nc4C)ccn3)cc2)c1

Structure (SMILES): CCC(=O)N1CCN(c2ccc(-n3c(=O)ccc4cnc5ccc(-c6cnc7ccccc7c6)cc5c43)cc2C(F)(F)F)CC1
- % of control [14]: 60%
- % of control [15]: 86%

Structure (SMILES): C=CC(=O)Nc1cc(-n2c(=O)ccc3cnc4ccc(-c5ccc(NS(C)(=O)=O)cc5)cc4c32)ccc1C
- % of control ([16]; at 1 µM): 100%
- % of control ([16]; at 10 µM): 24%

Structure (SMILES): N#Cc1cccc(-c2c[nH]c3ncnc(N4CCOCC4)c23)c1
- % of control [17]: 80%
- % of control [18]: 69%

Structure (SMILES): CNC(=O)Nc1ccc(-c2nc(N3CC4CCC(C3)O4)c3cnn(C4CCC5(CC4)OCCO5)c3n2)cc1
- % of control [19]: 92%
- % of inhibition [20]: 7%

Structure (SMILES): C=CC(=O)Nc1ccc(C(=O)Nc2[nH]nc3c2CN(C(=O)N[C@H](CN(C)C)c2ccccc2)C3(C)C)cc1
- % of engagement [21]: 0.3%
